# Values quoted from earlier work, collected in publication PMC7876056, “Population Pharmacokinetic Analysis of Yimitasvir in Chinese Healthy Volunteers and Patients With Chronic Hepatitis C Virus Infection” (Frontiers in Pharmacology, 2021).
# Like-named read-outs stand apart in the source and are kept apart here.
# Details: cited from earlier work; for Time-varying ALT as covariate on PK: healthy volunteers and HCV patients
# [1] = ref U.S. Food and Drug Administration, 2014
# [2] = ref U.S. Food and Drug Administration, 2016
smiles,measurement,setting,value
COC(=O)N[C@H](C(=O)N1CCC[C@H]1c1nc(-c2ccc(-c3ccc(-c4c[nH]c([C@@H]5CCCN5C(=O)[C@@H](NC(=O)OC)C(C)C)n4)cc3)cc2)c[nH]1)C(C)C [daclatasvir],Time-varying ALT as covariate on CL/F,"patient population only, ref Chan et al., 2017",significant covariate
same,Effect of time-varying ALT on AUCss,"ref Chan et al., 2017",small
same,Gender effect on CL/F,"ref Chan et al., 2017",lower CL/F values in females
COC(=O)N[C@H](C(=O)N1CC2(CC2)C[C@H]1c1ncc(-c2ccc3c(c2)C(F)(F)c2cc(-c4ccc5nc([C@@H]6[C@H]7CC[C@H](C7)N6C(=O)[C@@H](NC(=O)OC)C(C)C)[nH]c5c4)ccc2-3)[nH]1)C(C)C [ledipasvir],Time-varying ALT as covariate on PK,[1],not identified as a significant covariate
same,Effect of co-medication of sofosbuvir on PK profile,"ref German et al., 2016",not affected by co-medication of sofosbuvir
same,Gender effect on CL/F,[1],lower CL/F values in females
COC[C@H]1C[C@@H](c2ncc(-c3ccc4c(c3)COc3cc5c(ccc6nc([C@@H]7CC[C@H](C)N7C(=O)[C@@H](NC(=O)OC)C(C)C)[nH]c65)cc3-4)[nH]2)N(C(=O)[C@H](NC(=O)OC)c2ccccc2)C1 [velpatasvir],Time-varying ALT as covariate on PK,[2],not identified as a significant covariate
same,Effect of co-medication of sofosbuvir on PK profile,"ref Brieva et al., 2017",not affected by co-medication of sofosbuvir
same,Gender effect on CL/F,[2],lower CL/F values in females
